Drawing on PubChem BioAssay (NCI), this text covers TGI for eight molecules.

Molecules are shown by their SMILES.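 Growth conditions: 96-well plates. Treatment: test compound, 48 hours, 5 concentrations. Analysis: linear interpolation between bracketing concentrations; unreached endpoints set to highest concentration. TGI denotes the concentration required for complete inhibition of growth.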 Where a SMILES comes first, the peptide text is derived from it. [ ]: non-standard residue; d: D form. The star is where a group is joined. ξ: configuration not given here. ξPhe(4-NO2) = NC(Cc1ccc([N+](=O)[O-])cc1)C(=O)O; Boc = CC(C)(C)OC(=O)*; OBn = c1ccc(CO*)cc1

Some test systems named below: A549 NSCLC; CAKI-1 renal; COLO 205 colon; DU-145 prostate; HCT-116 colon; HOP-92 NSCLC; KM12 colon; LOX IMVI melanoma; M14 melanoma; MOLT-4 leukemia; OVCAR-3 ovarian; OVCAR-5 ovarian; PC-3 prostate; RXF 393 renal; SK-MEL-2 melanoma; SNB-19 CNS; SW-620 colon; TK-10 renal; OVCAR-4 ovarian.
Assay in all cases: NCI-60 cell line screen, 48 h

For `O=c1oc2cc(O)ccc2c(O)c1C(c1ccccn1)c1c(O)c2ccc(O)cc2oc1=O`, the TGI in the experiment on A549 NSCLC, with CAKI-1 renal, with COLO 205 colon, in the experiment on DU-145 prostate, with HCT-116 colon and in the experiment on HOP-92 NSCLC was > 100 µM each time. Moreover, the TGI with KM12 colon, in the experiment with LOX IMVI melanoma, in the experiment with M14 melanoma, in the experiment on MOLT-4 leukemia, with OVCAR-3 ovarian and with OVCAR-5 ovarian was > 100 µM throughout. The TGI in the experiment with PC-3 prostate, with RXF 393 renal, in the experiment on SK-MEL-2 melanoma, in the experiment with SNB-19 CNS, with SW-620 colon and in the experiment with TK-10 renal was > 100 µM each time.

For `C=CCNC(=O)/C(Cc1cc(Br)c(OC)c(Br)c1O)=N\O`, the TGI in the experiment on A549 NSCLC is 53.4 µM; in the experiment with CAKI-1 renal, 33.7 µM; in the experiment on COLO 205 colon, 26 µM; with DU-145 prostate it was 25.1 µM; in the experiment with HCT-116 colon it was 12.7 µM; in the experiment with HOP-92 NSCLC it was 24.1 µM. Moreover, the TGI in the experiment on KM12 colon is 19.8 µM; in the experiment with LOX IMVI melanoma, 55 µM; in the experiment with M14 melanoma, 23.6 µM; with MOLT-4 leukemia it was > 100 µM; with OVCAR-3 ovarian it was 10.7 µM; in the experiment with OVCAR-4 ovarian, 84.6 µM. The TGI in the experiment on OVCAR-5 ovarian was 34.4 µM; in the experiment with PC-3 prostate, > 100 µM; in the experiment with SK-MEL-2 melanoma it was 44.5 µM; with SNB-19 CNS it was 58.9 µM; with SW-620 colon it was 26.4 µM; in the experiment on TK-10 renal, 64.8 µM.

Consider `CC1(C)CCCCCCCCCC(C)(CCCO)C1=O` (stereo unspecified), for which the TGI in the experiment with A549 NSCLC is 28.8 µM; in the experiment with CAKI-1 renal, 31.6 µM; with COLO 205 colon it was 30.1 µM; in the experiment on DU-145 prostate, 31 µM; with HCT-116 colon it was 31.2 µM; in the experiment on HOP-92 NSCLC, 27.7 µM. Moreover, the TGI in the experiment with KM12 colon stood at 33 µM; in the experiment on LOX IMVI melanoma, 32.9 µM; in the experiment with M14 melanoma, 27.4 µM; with MOLT-4 leukemia, 41.9 µM; in the experiment with OVCAR-3 ovarian, 34.1 µM; with OVCAR-4 ovarian, 29 µM. In addition, the TGI in the experiment on OVCAR-5 ovarian was determined as 28.8 µM; in the experiment on PC-3 prostate it was 27 µM; in the experiment on RXF 393 renal, 34.4 µM; in the experiment with SK-MEL-2 melanoma, 28.9 µM; in the experiment with SNB-19 CNS, 31.9 µM; in the experiment with SW-620 colon, 34.1 µM.

For `C=C(C)[C@@H]1CC[C@@H](C)[C@](O)([C@@H]2C[C@@H]([C@H](COC(=O)c3ccccc3)OC(=O)c3ccccc3)OC2=O)C1`, the TGI with A549 NSCLC, in the experiment on CAKI-1 renal, with COLO 205 colon, in the experiment on DU-145 prostate, in the experiment with HCT-116 colon and with KM12 colon was > 100 µM each time. Further, the TGI in the experiment with LOX IMVI melanoma, in the experiment with M14 melanoma, with MOLT-4 leukemia, in the experiment with OVCAR-3 ovarian, in the experiment on OVCAR-4 ovarian and in the experiment on OVCAR-5 ovarian was > 100 µM each time. The TGI in the experiment on PC-3 prostate, in the experiment on RXF 393 renal, in the experiment with SK-MEL-2 melanoma, in the experiment with SNB-19 CNS, with SW-620 colon and in the experiment on TK-10 renal was > 100 µM in each case.

For `C/C(=N\NC(=O)/C(C#N)=C\c1ccc(N(CCC#N)CCC#N)cc1)c1ccccc1`, the TGI in the experiment on A549 NSCLC, with CAKI-1 renal, in the experiment on COLO 205 colon, with DU-145 prostate, in the experiment on HCT-116 colon and in the experiment with HOP-92 NSCLC was > 10 µM throughout. Besides, the TGI in the experiment with KM12 colon, in the experiment on LOX IMVI melanoma, with M14 melanoma, with MOLT-4 leukemia, in the experiment on OVCAR-4 ovarian and in the experiment with PC-3 prostate was > 10 µM each time. For the same molecule, the TGI with RXF 393 renal, in the experiment on SNB-19 CNS, in the experiment with SW-620 colon and with TK-10 renal was > 10 µM in each case.

As to `CN(C)c1ncnc2c1ncn2C1C=CC(COS(N)(=O)=O)C1` (stereo unspecified), the TGI in the experiment on A549 NSCLC, in the experiment on CAKI-1 renal, in the experiment on COLO 205 colon, in the experiment with DU-145 prostate, in the experiment on HCT-116 colon and with HOP-92 NSCLC was > 100 µM in each case. Further, the TGI with KM12 colon, in the experiment on LOX IMVI melanoma, with M14 melanoma, with MOLT-4 leukemia, in the experiment with OVCAR-3 ovarian and in the experiment on OVCAR-4 ovarian was > 100 µM in each case. Besides, the TGI with PC-3 prostate, with RXF 393 renal, in the experiment with SK-MEL-2 melanoma, in the experiment with SNB-19 CNS and with SW-620 colon was > 100 µM each time.

In the case of `CC(C)(C)OC(=O)NC(Cc1ccc([N+](=O)[O-])cc1)C(=O)NCC(=O)OCc1ccccc1` (stereo unspecified) (Boc-[ξPhe(4-NO2)]-Gly-OBn), the TGI is > 100 µM in the experiment with A549 NSCLC; 27.7 µM in the experiment on CAKI-1 renal; 32.3 µM with COLO 205 colon; 81.8 µM in the experiment with DU-145 prostate; 68.2 µM in the experiment on HCT-116 colon; 65.9 µM with HOP-92 NSCLC. Also, the TGI was 59 µM in the experiment with KM12 colon; 31.2 µM in the experiment on LOX IMVI melanoma; 37.6 µM in the experiment on M14 melanoma; 48.1 µM in the experiment on MOLT-4 leukemia; 50.5 µM in the experiment with OVCAR-3 ovarian; > 100 µM with OVCAR-4 ovarian. Further, the TGI in the experiment with OVCAR-5 ovarian was > 100 µM; with PC-3 prostate it was 49.6 µM; in the experiment on RXF 393 renal it was 53.1 µM; in the experiment on SNB-19 CNS, > 100 µM; in the experiment with SW-620 colon, > 100 µM; in the experiment on TK-10 renal, > 100 µM.

Take `CC1(C)C=C(/C=N/Nc2ccc(Br)cc2)C(C#N)=C(O)C1(C#N)C#N`: the TGI was > 100 µM with A549 NSCLC; 95.4 µM in the experiment with CAKI-1 renal; 36.8 µM in the experiment on COLO 205 colon; > 100 µM in the experiment with DU-145 prostate; > 100 µM with HCT-116 colon; 65.7 µM in the experiment with HOP-92 NSCLC. Further, the TGI is > 100 µM with KM12 colon; > 100 µM with LOX IMVI melanoma; > 100 µM in the experiment on M14 melanoma; 89.8 µM with MOLT-4 leukemia; > 100 µM in the experiment on OVCAR-3 ovarian; > 100 µM in the experiment with OVCAR-4 ovarian. For the same molecule, the TGI in the experiment with OVCAR-5 ovarian is > 100 µM; with PC-3 prostate it was 63.9 µM; in the experiment on RXF 393 renal, 91.3 µM; in the experiment with SNB-19 CNS, > 100 µM; with SW-620 colon it was > 100 µM; in the experiment on TK-10 renal, > 100 µM.
